Patent US20230373974A1, “MODULATORS OF CYSTIC FIBROSIS TRANSMEMBRANE CONDUCTANCE REGULATOR” (VERTEX PHARMACEUTICALS INCORPORATED, priority 2020, published 2023)
pEC50: −log10 of the molar value.

Target: T1, F508del in NIH 3T3 cells (Homo sapiens, UniProt P13569, DEL508-508)
T1 construct: expressed in transfected cells
Test: 3T3 assay: membrane potential optical assay for F508del correction
Assay type: cell-based, mouse
Conditions: F508del NIH 3T3 cells; for pEC50: incubated with compound 18-24 hours at 37° C., forskolin activation; for Emax: NIH3T3, efficacy compared to lumacaftor in combination with acutely added 300 nM Ivacaftor, read-out: 3T3 Max Activity (%)
Source text: Membrane Potential Optical Methods for Assaying F508del Modulation Properties of Compounds The assay utilizes fluorescent voltage sensing dyes to measure changes in membrane potential using a fluorescent plate reader (e.g., FLIPR III, Molecular Devices, Inc.) as a readout for increase in functional F508del in NIH 3T3 cells. The driving force for the response is the creation of a chloride ion gradient in conjunction with channel activation by a single liquid addition step after the cells have previously been treated with compounds and subsequently loaded with a voltage sensing dye. 2. Identification of Corrector Compounds To identify correctors of F508del, a single-addition HTS assay format was developed. This HTS assay utilizes fluorescent voltage sensing dyes to measure changes in membrane potential on the FLIPR III as a measurement for increase in gating (conductance) of F508del in F508del NIH 3T3 cells. The F508del NIH 3T3 cell cultures were incubated with the corrector compounds at a range of concentrations for 18-24 hours at 37° C., and subsequently loaded with a redistribution dye. The driving force for the response is a Cl^− ion gradient in conjunction with channel activation with forskolin in a single liquid addition step using a fluorescent plate reader such as FLIPR III. […] Solutions […] Chloride-free bath solution: Chloride salts in Bath Solution #1 (above) are substituted with gluconate salts. 4. Cell Culture NIH3T3 mouse fibroblasts stably expressing F508del are used for optical measurements of membrane potential. The cells are maintained at 37° C. in 5% CO2 and 90% humidity in Dulbecco's modified Eagle's medium supplemented with 2 mM glutamine, 10% fetal bovine serum, 1×NEAA, b-ME, 1×pen/strep, and 25 mM HEPES in 175 cm^2 culture flasks. For all optical assays, the cells were seeded at ˜20,000/well in 384-well Matrigel-coated plates. For the correction assays, the cells are cultured at 37° C. with and without compounds for 16-24 hours.

T1 sequence (P13569 with tags, fused parts or gaps DEL508-508): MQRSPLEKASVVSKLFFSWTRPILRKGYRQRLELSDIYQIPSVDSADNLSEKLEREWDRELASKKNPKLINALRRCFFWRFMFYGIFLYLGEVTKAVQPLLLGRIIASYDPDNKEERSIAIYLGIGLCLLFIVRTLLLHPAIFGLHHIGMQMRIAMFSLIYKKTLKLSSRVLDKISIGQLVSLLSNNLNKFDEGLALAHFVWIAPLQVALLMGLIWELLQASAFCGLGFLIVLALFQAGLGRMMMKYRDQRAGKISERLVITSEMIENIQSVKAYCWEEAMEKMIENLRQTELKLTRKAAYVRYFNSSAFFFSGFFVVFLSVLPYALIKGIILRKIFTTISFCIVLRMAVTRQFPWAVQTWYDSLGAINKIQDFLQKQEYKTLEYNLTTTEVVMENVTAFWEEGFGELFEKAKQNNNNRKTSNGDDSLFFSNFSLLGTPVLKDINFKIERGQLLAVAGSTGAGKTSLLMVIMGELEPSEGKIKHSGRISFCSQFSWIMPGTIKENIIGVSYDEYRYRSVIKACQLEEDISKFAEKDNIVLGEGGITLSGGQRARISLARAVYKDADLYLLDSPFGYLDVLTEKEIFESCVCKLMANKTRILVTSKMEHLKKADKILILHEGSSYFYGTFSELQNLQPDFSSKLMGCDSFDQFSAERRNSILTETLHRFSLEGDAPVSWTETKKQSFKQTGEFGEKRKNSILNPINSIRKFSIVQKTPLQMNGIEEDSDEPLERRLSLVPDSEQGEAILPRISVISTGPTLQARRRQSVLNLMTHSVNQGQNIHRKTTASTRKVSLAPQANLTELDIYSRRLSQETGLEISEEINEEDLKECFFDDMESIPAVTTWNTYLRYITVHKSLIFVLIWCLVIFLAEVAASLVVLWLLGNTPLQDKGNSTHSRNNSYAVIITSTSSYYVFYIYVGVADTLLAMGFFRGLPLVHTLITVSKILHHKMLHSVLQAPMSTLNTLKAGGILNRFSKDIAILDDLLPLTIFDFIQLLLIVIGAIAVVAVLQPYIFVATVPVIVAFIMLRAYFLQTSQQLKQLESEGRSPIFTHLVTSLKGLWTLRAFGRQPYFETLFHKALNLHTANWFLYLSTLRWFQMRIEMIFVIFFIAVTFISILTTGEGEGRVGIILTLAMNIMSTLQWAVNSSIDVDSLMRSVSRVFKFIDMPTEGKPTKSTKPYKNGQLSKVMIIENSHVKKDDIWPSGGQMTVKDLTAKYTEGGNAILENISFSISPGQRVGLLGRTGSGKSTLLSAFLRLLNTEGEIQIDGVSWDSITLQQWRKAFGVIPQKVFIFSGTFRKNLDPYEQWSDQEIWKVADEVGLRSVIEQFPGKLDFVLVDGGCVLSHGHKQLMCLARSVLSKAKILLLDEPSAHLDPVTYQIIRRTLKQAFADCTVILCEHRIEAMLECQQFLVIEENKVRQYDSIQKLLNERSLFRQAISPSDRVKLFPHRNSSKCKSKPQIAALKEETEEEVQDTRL

pEC50 | Emax [%] | Compound
> 6.00 | 30 to 60 | COc1cccc(-n2nc(NS(=O)(=O)c3ccccc3)c3ccc(C(C)(C)C)nc32)c1 [Compound 50]
5.52 to 6.00 | 30 to 60 | COc1ccccc1-n1nc(NS(=O)(=O)c2ccccc2)c2ccc(C(C)(C)C)nc21 [Compound 51]
– | 30 to 60 | Cc1cc(C)c(-n2nc(NS(=O)(=O)c3ccccc3)c3cccnc32)c(C)c1 [Compound 52]
5.52 to 6.00 | 30 to 60 | Cc1ccccc1-n1nc(NS(=O)(=O)c2ccccc2)c2ccc(Br)cc21 [Compound 70, N-[6-bromo-1-(o-tolyl)indazol-3-yl]benzenesulfonamide]
5.52 to 6.00 | > 60 | C=C(C)c1ccc2c(NS(=O)(=O)c3ccccc3)nn(-c3ccccc3C)c2c1 [Compound 72, N-[6-isopropenyl-1-(o-tolyl)indazol-3-yl]benzenesulfonamide]
5.52 to 6.00 | 30 to 60 | Cc1ccccc1-n1nc(NS(=O)(=O)c2ccccc2)c2ccc(C(C)C)cc21 [Compound 73, N-[6-isopropyl-1-(o-tolyl)indazol-3-yl]benzenesulfonamide]
– | < 30 | CCn1nc(NS(=O)(=O)c2ccccc2)c2ccccc21 [Compound 74]
> 6.00 | > 60 | Cc1cccc(C)c1-c1nc(NS(=O)(=O)c2ccccc2)nc2c1CCCC2(C)c1ccccc1 (centres unmarked) [Compound 76, N-[4-(2,6-Dimethylphenyl)-8-methyl-8-phenyl-6,7-dihydro-5H-quinazolin-2-yl]benzenesulfonamide]
– | < 30 | Cc1cc(NS(=O)(=O)c2ccccc2)nc2ccccc12 [Compound 81]
– | < 30 | O=S(=O)(Nc1ccc2cc[nH]c2n1)c1ccccc1 [Compound 82]
– | < 30 | Cc1ccc(-n2ncc3c2CC(C)(C)CC3NS(=O)(=O)c2ccccc2)cc1 (centres unmarked) [Compound 83]
– | < 30 | CC(C)(C)C1CCc2nc(NS(=O)(=O)c3ccccc3)ncc2C1 (centres unmarked) [Compound 84]
– | < 30 | CC(C)n1c(NS(=O)(=O)c2ccccc2)nc2ccccc21 [Compound 85]
– | < 30 | Cn1c(NS(=O)(=O)c2ccccc2)nc2ccccc21 [Compound 86]
– | < 30 | CC(C)(C)c1ccc2c(NS(=O)(=O)c3ccccc3)cn(-c3cccc(Cl)c3)c2n1 [Compound 87]
– | < 30 | Cc1cc(C)cc(-n2cc(NS(=O)(=O)c3ccccc3)c3ccc(C(C)(C)C)nc32)c1 [Compound 88]
– | < 30 | Cc1ccccc1-n1cc(NS(=O)(=O)c2ccccc2)c2ccc(C(C)(C)C)nc21 [Compound 89]
– | < 30 | Cc1cc(C)cc(-n2c(NS(=O)(=O)c3ccccc3)nc3cc(C(C)(C)C)ccc32)c1 [Compound 91]
– | < 30 | Cc1cc(C)cc(-n2c(NS(=O)(=O)c3ccccc3)nc3ccc(C(C)(C)C)cc32)c1 [Compound 92]
– | < 30 | CC(C)(C)c1ccc2nc(NS(=O)(=O)c3ccccc3)[nH]c2c1 [Compound 93]

More lines, now with the values behind:

Compound | pEC50 | Emax [%]
Cc1cc(C)c(-n2nc(NS(=O)(=O)c3cccc4c3OCCO4)c3ccc(C(C)(C)C)nc32)c(C)c1 [Compound 53] | > 6.00 | 30 to 60
COc1cccc(OC)c1S(=O)(=O)Nc1nn(-c2c(C)cc(C)cc2C)c2nc(C(C)(C)C)ccc12 [Compound 54] | – | < 30
COc1ccc(N)cc1S(=O)(=O)Nc1nn(-c2c(C)cc(C)cc2C)c2nc(C(C)(C)C)ccc12 [Compound 55] | 4.52 to 5.52 | 30 to 60
Cc1cc(C)c(-n2nc(NS(=O)(=O)c3ncc[nH]3)c3ccc(C(C)(C)C)nc32)c(C)c1 [Compound 56] | 5.52 to 6.00 | 30 to 60
COc1cc(OC)cc(S(=O)(=O)Nc2nn(-c3c(C)cc(C)cc3C)c3nc(C(C)(C)C)ccc23)c1 [Compound 57] | – | < 30
COc1ccc(OC)c(S(=O)(=O)Nc2nn(-c3c(C)cc(C)cc3C)c3nc(C(C)(C)C)ccc23)c1 [Compound 58] | > 6.00 | 30 to 60
COc1ccccc1S(=O)(=O)Nc1nn(-c2c(C)cc(C)cc2C)c2nc(C(C)(C)C)ccc12 [Compound 59] | 5.52 to 6.00 | 30 to 60
COc1cccc(S(=O)(=O)Nc2nn(-c3c(C)cc(C)cc3C)c3nc(C(C)(C)C)ccc23)c1 [Compound 60] | > 6.00 | 30 to 60
Cc1cc(C)c(-n2nc(NS(=O)(=O)c3cccc(N)c3)c3ccc(C(C)(C)C)nc32)c(C)c1 [Compound 61] | > 6.00 | 30 to 60
Cc1cc(C)c(-n2nc(NS(=O)(=O)c3cccc(Cl)c3)c3ccc(C(C)(C)C)nc32)c(C)c1 [Compound 62] | – | < 30
Cc1cccc(S(=O)(=O)Nc2nn(-c3c(C)cc(C)cc3C)c3nc(C(C)(C)C)ccc23)c1 [Compound 63] | – | < 30
COc1ccc(S(=O)(=O)Nc2nn(-c3c(C)cc(C)cc3C)c3nc(C(C)(C)C)ccc23)cc1 [Compound 64] | – | < 30
Cc1cc(C)c(-n2nc(NS(=O)(=O)c3ccc(Cl)cc3)c3ccc(C(C)(C)C)nc32)c(C)c1 [Compound 65] | – | < 30
Cc1ccc(S(=O)(=O)Nc2nn(-c3c(C)cc(C)cc3C)c3nc(C(C)(C)C)ccc23)cc1 [Compound 66] | – | < 30
Cc1cc(C)c(-n2nc(NS(=O)(=O)c3ccccc3N)c3ccc(C(C)(C)C)nc32)c(C)c1 [Compound 67] | – | < 30
Cc1cc(C)c(-n2nc(NS(=O)(=O)c3ccccc3Cl)c3ccc(C(C)(C)C)nc32)c(C)c1 [Compound 68] | – | < 30
Cc1cc(C)c(-n2nc(NS(=O)(=O)c3ccccc3C)c3ccc(C(C)(C)C)nc32)c(C)c1 [Compound 69] | – | < 30
Cc1cc(C)c(-n2nc3nc(C(C)(C)C)ccc3c2NS(=O)(=O)c2ccccc2)c(C)c1 [Compound 71] | – | < 30
Cc1cc(C)cc(-c2nc(NS(=O)(=O)c3ccccc3)cc3ccccc23)c1 [Compound 77, N-[1-(3,5-dimethylphenyl)-3-isoquinolyl]benzenesulfonamide] | > 6.00 | –
Cc1cc(C)cc(-c2cc(NS(=O)(=O)c3ccccc3)nc3ccccc23)c1 [Compound 78, N-[4-(3,5-Dimethylphenyl)-2-quinolyl]benzenesulfonamide] | – | < 30
Cc1cc(C)c(-c2nnc(NS(=O)(=O)c3ccccc3)c3ccc(C(C)(C)C)nc23)c(C)c1 [Compound 90] | – | < 30
Cc1cc(C)c(Oc2cc(C(C)(C)C)cc3nnc(NS(=O)(=O)c4cccc(N)c4)n23)c(C)c1 [Compound 94] | – | < 30
Cc1cc(C)c(Oc2cc(C(C)(C)C)cc3nnc(NS(=O)(=O)c4ccccc4)n23)c(C)c1 [Compound 95] | – | < 30
